Measurements from ChEMBL document CHEMBL4613290, “Discovery of Reversible Inhibitors of KDM1A Efficacious in Acute Myeloid Leukemia Models” (ACS Med Chem Lett, 2020).

What was measured:
[1] = target: Lysine-specific histone demethylase 1A (Homo sapiens, UniProt O60341); test: Inhibition of recombinant human LSD1 expressed in Escherichia coli using biotinylated H3K4me as substrate by TR-FRET assay
[2] = system: THP-1; test: Anticlonogenic activity against human THP1 cells assessed as inhibition of colony formation at 50 nM measured after 13 days relative to control; type: functional; details: THP-1, 312 h
[3] = system: THP-1; test: Anticlonogenic activity against human THP1 cells assessed as inhibition of colony formation at 500 nM measured after 13 days relative to control; type: functional; details: THP-1, 312 h
[4] = Toxicity in sub-lethal irradiated C57BL6JCRL mouse xenografted with human MLL-AF9 cells assessed as effect on body weight at 15 to 30 mg/kg, po administered 5 days per week for 2 weeks starting after 10 days post-injection; type: organism-based; details: in vivo
[5] = Oral bioavailability in CD-1 mouse at 15 mg/kg administered as single dose; type: ADME, organism-based; details: in vivo
[6] = AUC (0 to infinity) in CD-1 mouse at 15 mg/kg, po administered as single dose; type: ADME, organism-based; design: dose 15 mg/kg, time infinity, route oral; details: in vivo
[7] = Clearance in CD-1 mouse at 5 mg/kg, iv administered as single dose; type: ADME, organism-based; details: in vivo
[8] = Cmax in CD-1 mouse at 15 mg/kg, po administered as single dose; type: ADME, organism-based; design: dose 15 mg/kg, route oral; details: in vivo
[9] = Toxicity in non-irradiated mouse injected with APL blast cells assessed as effect on body weight at 60 mg/kg, po administered 5 days per week for 2 weeks starting after 10 days post-injection measured after 1st week of treatment; type: organism-based; details: in vivo
[10] = Volume of distribution at steady state in CD-1 mouse at 5 mg/kg, iv administered as single dose; type: ADME, organism-based; details: in vivo, read-out: Vdss
[11] = Antitumor activity against mouse APL blast injected in non-irradiated mouse assessed as increase in mouse survival at 30 mg/kg, po administered 5 days per week for 2 weeks starting after 10 days post-injection by Kaplan-Meier plot analysis relative to control; type: functional
[12] = Antitumor activity against human MLL-AF9 xenografted in sub-lethal irradiated C57BL6JCRL mouse assessed as increase in mouse survival at 30 mg/kg, po administered 5 days per week for 2 weeks starting after 10 days post-injection by Kaplan-Meier plot analysis relative to control; type: functional
[13] = AUC (0 to infinity) in CD-1 mouse at 5 mg/kg, iv administered as single dose; type: ADME, organism-based; design: dose 5 mg/kg, time infinity, route intravenous; details: in vivo
[14] = Antitumor activity against mouse APL blast injected in non-irradiated mouse assessed as increase in mouse survival at 15 mg/kg, po administered 5 days per week for 2 weeks starting after 10 days post-injection by Kaplan-Meier plot analysis relative to control; type: functional
[15] = Cmax in CD-1 mouse at 5 mg/kg, iv administered as single dose; type: ADME, organism-based; design: dose 5 mg/kg, route intravenous; details: in vivo
[16] = Antitumor activity against human MLL-AF9 xenografted in sub-lethal irradiated C57BL6JCRL mouse assessed as increase in mouse survival at 15 mg/kg, po administered 5 days per week for 2 weeks starting after 10 days post-injection by Kaplan-Meier plot analysis relative to control; type: functional
[17] = system: Mus musculus; test: Antitumor activity against mouse APL blast injected in non-irradiated po dosed mouse assessed as increase in mouse survival administered 5 days per week for 2 weeks starting after 10 days post-injection by Kaplan-Meier plot analysis relative to control; type: functional, organism-based
[18] = Tmax in CD-1 mouse at 15 mg/kg, po administered as single dose; type: ADME, organism-based; details: in vivo
[19] = Half life in CD-1 mouse at 5 mg/kg, iv administered as single dose; type: ADME, organism-based; details: in vivo
[20] = Toxicity in non-irradiated mouse injected with APL blast cells assessed as effect on body weight at 15 and 30 mg/kg, po administered 5 days per week for 2 weeks starting after 10 days post-injection; type: organism-based; details: in vivo

Structure (SMILES)	IC50 [1] [µM]	inhibition at 0.05 µM [2] [%]	inhibition at 0.5 µM [3] [%]	other results
Cn1c(C(=O)Cc2ccccc2)cc2sccc21	> 100	–	–	–
Cn1c(-c2nc(C3CCC3)cn2CCCc2ccc(OC3CCCNCC3)cc2)cc2sccc21 (stereo not given)	–	40.9	74.2	–
CCCc1cn(CCCc2ccc(OC3CCCNCC3)cc2)c(-c2cc3sccc3n2C)n1 (stereo not given)	–	46.6	64.2	–
CCc1cn(CCCc2ccc(OC3CCNCC3)cc2)c(-c2cc3sccc3n2C)n1	–	33.3	61.4	–
Cn1c(-c2nc(C3CCC3)cn2CCCc2ccc(OC3CCNCC3)cc2)cc2sccc21	–	38.8	72.3	Activity [4]: Non-Toxic; bioavailability [5]: 17%; AUC(0-inf) [6]: 2.03 µM·h; clearance [7]: 37.5 mL/min/kg; Cmax [8]: 320 nM; Activity [9]: Toxic; Vd [10]: 10.2 L/kg; Activity [11]: 55%; Activity [12]: 70%; AUC(0-inf) [13]: 4.2 µM·h; Activity [14]: 20%; Cmax [15]: 2540 nM; Activity [16]: 29%; Activity [17]: Dose-dependent effect; Tmax [18]: 0.417 h; half-life [19]: 6 h; Activity [20]: Non-Toxic
CCc1cn(CCOc2ccc(OC3CCNCC3)cc2)c(-c2cc3sccc3n2C)n1	–	27.6	72.3	–
Cn1c(NC(=O)c2ccccc2)cc2sccc21	> 100	–	–	–
Cn1c(-c2nc(C3CCC3)cn2CCOc2ccc(OC3CCNCC3)cc2)cc2sccc21	–	33	73.3	–

Second part, led by results:

IC50 [1] [µM]	Structure (SMILES)	inhibition at 0.05 µM [2] [%]	inhibition at 0.5 µM [3] [%]	other results
> 100	Cn1c(-c2nnc(-c3ccccc3)[nH]2)cc2sccc21	–	–	–
> 100	Cn1c(-c2nnc(-c3ccccc3)o2)cc2sccc21	–	–	–
> 100	Cn1c(-c2nc3ccccc3[nH]2)cc2sccc21	–	–	–
> 100	Cn1c(-c2ncc(-c3ccccc3)o2)cc2sccc21	–	–	–
